Data as given in US20230000945A1, “TOPICAL PHARMACEUTICAL FORMULATIONS OF A CYCLIC DEPSIPEPTIDE” (Lifemax Laboratories, Inc., priority 2020, published 2023).

Experiments:
[1] = Stability of LM030 formulations stored at 50° C. for 7 days; assay type: physicochemical; settings: summary of Table 7
[2] = General solubility and stability properties of LM030; assay type: physicochemical
From the text: Difficulties in formulating LM030 for topical administration are described in U.S. Pat. No. 8,680,054. In particular, the solubility and stability properties of LM030 create challenges in developing a topical formulation with adequate storage stability that is also able to provide an effective amount of active agent available for skin penetration [See col 4, lines 16-23].

## CC[C@H](C)[C@@H]1NC(=O)[C@H](Cc2ccc(O)cc2)N(C)C(=O)[C@H]([C@@H](C)CC)N2C(=O)[C@H](CC[C@H]2O)NC(=O)[C@H](CC(C)C)NC(=O)[C@@H](NC(=O)[C@H](CCC(N)=O)NC(=O)C(C)C)[C@@H](C)OC1=O [LM030]
[1]
  stability in the presence of aqueous solutions: poor stability
[2]
  solubility in lipophilic excipients: low
  solubility in polar organic solvents: good
  solubility in water and aqueous buffers: moderate
  stability in polar organic solvents: poor
